Experimental data taken from patent publication US20210046160A1 (Synthorx, Inc., priority 2019, published 2021).

Key:
Treg cells = assay: pSTAT5 concentration-response in human LRS-derived PBMC samples (flow cytometry): Treg cells; assay type: cell-based; details: ratio of pSTAT5 EC50 values; for CD8+/Treg ratio: Table 12; for CD8/Treg ratio: Table 4
Protocol: These studies were performed at PrimityBio LLC (Fremont, Calif.). […] Staining panel for flow cytometry study of LRS-derived PBMC samples include markers for Effector T cells (Teff: CD3+, CD4+, CD8+, CD127+), NK cells (CD3-, CD16+), and Regulatory T cells (Treg: CD3+, CD4+, CD8-, IL-2Rα+, CD127-1).
The EC50 values (pg/mL) was calculated from dose response curves generated from MFI plots.
These studies were performed at PrimityBio LLC (Fremont, Calif.). […] Staining panel for flow cytometry study of LRS-derived PBMC samples include markers CD4, CD4+ memory central, CD4+ memory effect, CD4+ memory T cells, CD4+ Naive T cells, CD4+ T cells, CD8, CD8+ memory central, CD8+ memory effect, CD8+ memory T cells, CD8+ Naive T cells, CD8+ T cells, NK cells, and T regulatory cells.
Conjugates of Table 12 were synthesized by modification of SEQ NO. 1. These studies were performed at PrimityBio LLC (Fremont, Calif.).
The EC50 values (pg/ml) were calculated from dose response curves generated from the MFI plots.

CTLL-2 = CTLL-2 proliferation; assay type: cell-based
[1] = PK study E3826-U1704 in naïve C57BL/6 mice (human IL-2 ELISA of plasma); assay type: in vivo; details: for AUC0-t / AUCINF / CL / Cmax / Tmax / Vss (distribution volume) / t½: C57BL/6 female mice, single IV bolus 0.3 mg/kg, E62_5 kD from a separate study; for mean plasma concentrations measurable out to (post-dose): single IV bolus, 120 h = last measured time point
Protocol: Terminal blood samples were collected via cardiac puncture at the points indicated. […] Plasma and blood cells (in both studies) and tumors in study E3826-U1803 were collected for PK and PD analyses.
Bioanalysis of plasma samples was performed using a qualified human IL-2 ELISA assay (Abcam, Cambridge, UK). Concentrations of Aldesleukin, E62_30kD and P65_30kD and the internal standard in samples derived from plasma were determined using an ELISA assay. […] The PK data were imported into Phoenix WinNonlin v6.4 (Certara/Pharsight, Princeton, N.J.) for analysis. The group mean plasma concentration versus time data were analyzed with noncompartmental methods using an IV bolus administration model.

[2] = PK study of K35_30kD in C57BL/6 mice (Example 8); assay type: in vivo; details: male C57BL/6 mice
Protocol: The lyophilized test article was reconstituted in PBS, and nine male C57BL/6 mice were dosed with 0.3 and 3 mg/kg via intravenous tail vein injection for each dose group (see collection details below). Blood samples were collected at 0.08, 0.25, 0.5, 1, 2, 4, 8, 12, and 24 hours post dose. […] To adjust for ELISA-specific differences in sensitivity of kit detection of native and PEGylated compounds, native IL-2 and K35_30kD test article standard curves were generated using the test article diluent buffer, and data were analyzed with respect to respective standard curves. The data plotted represent the mean and SEM of three individual samples (biological replicates) as described above, and PK parameters for K35_30 kD test articles were extracted and summarized in Table 14.

Substance: D20_30kD: 30 kD PEGylated IL-2 conjugate at D20, made by modification of SEQ NO. 1 [Compound D20_30kD]
- CD8+/Treg ratio (Treg cells): 8
- EC50, CTLL-2 proliferation (CTLL-2; Table 12): 689939 pg/mL

Substance: E62K: IL-2 variant with residue substitution E62K, not PEGylated [Compound E62K]
- CD8/Treg ratio (Treg cells): 5.8
- EC50, CTLL-2 proliferation (CTLL-2; Table 4): 58,213 pg/mL

Substance: E62_5kD: SEQ ID NO: 21: IL-2 (SEQ ID NO: 4) with E62 replaced by AzK conjugated to methoxy linear 5 kDa PEG [Compound E62_5kD]
- AUC0-t [1]: 798 ng·h/mL
- AUCINF [1]: 807 ng·h/mL
- CL [1]: 6.2 mL/min/kg
- Cmax [1]: 936 ng/mL
- Tmax [1]: 7.98 min
- Vss (distribution volume) [1]: 0.404 L/kg
- t½ [1]: 2.56 h
- mean plasma concentrations measurable out to (post-dose) [1]: 12 h
- CD8/Treg ratio (Treg cells): 2.3
- EC50, CTLL-2 proliferation (CTLL-2; Table 4): 275,590 pg/mL

Substance: E62_30kD: SEQ ID NO: 26: IL-2 (SEQ ID NO: 4) with E62 replaced by AzK conjugated to methoxy linear 30 kDa PEG [Compound E62_30kD]
- AUC0-t [1]: 37,100 h*ng/mL
- AUCINF [1]: 37,100 h*ng/mL
- CL [1]: 0.134 mL/min/kg
- Cmax [1]: 4,230 ng/mL
- Tmax [1]: 1.8 min
- Vss (distribution volume) [1]: 0.0923 L/kg
- t½ [1]: 14.500 h
- mean plasma concentrations measurable out to (post-dose) [1]: 120 h
- CD8/Treg ratio (Treg cells): 1.8
- EC50, CTLL-2 proliferation (CTLL-2; Table 4): 398,012 pg/mL

Substance: E100_30kD: 30 kD PEGylated IL-2 conjugate at E100, made by modification of SEQ NO. 1 [Compound E100_30kD]
- CD8+/Treg ratio (Treg cells): 405
- EC50, CTLL-2 proliferation (CTLL-2; Table 12): 1676 pg/mL

Substance: H16_30kD: 30 kD PEGylated IL-2 conjugate at H16, made by modification of SEQ NO. 1 [Compound H16_30kD]
- CD8+/Treg ratio (Treg cells): 345
- EC50, CTLL-2 proliferation (CTLL-2; Table 12): 80755 pg/mL

Substance: K9_30kD: 30 kD PEGylated IL-2 conjugate at K9, made by modification of SEQ NO. 1 [Compound K9_30kD]
- CD8+/Treg ratio (Treg cells): 496
- EC50, CTLL-2 proliferation (CTLL-2; Table 12): 504 pg/mL

Substance: K35_30kD: SEQ ID NO: 29: IL-2 (SEQ ID NO: 4) with K35 replaced by AzK conjugated to methoxy linear 30 kDa PEG [Compound K35_30kD]
- AUC1/2extrap ([2]; 0.3 mg/kg single IV): 35.3%
- AUCo-t/D ([2]; 0.3 mg/kg single IV): 128000 ng·h/mL
- AUG0-∞ ([2]; 0.3 mg/kg single IV): 59600 ng·h/mL
- Cmax ([2]; 0.3 mg/kg single IV): 6080 ng/mL
- Cmax/D ([2]; 0.3 mg/kg single IV): 20300 kg·ng/mL/mg
- Tmax ([2]; 0.3 mg/kg single IV): 0.250 h
- t1/2 ([2]; 0.3 mg/kg single IV): 18.2 h
- AUC1/2extrap ([2]; 3 mg/kg single IV): 37.4%
- AUCo-t/D ([2]; 3 mg/kg single IV): 142000 ng·h/mL
- AUG0-∞ ([2]; 3 mg/kg single IV): 679000 ng·h/mL
- Cmax ([2]; 3 mg/kg single IV): 57700 ng/mL
- Cmax/D ([2]; 3 mg/kg single IV): 19200 kg·ng/mL/mg
- Tmax ([2]; 3 mg/kg single IV): 0.250 h
- t1/2 ([2]; 3 mg/kg single IV): 19.5 h
- CD8/Treg ratio (Treg cells): 176.0

Substance: L19_30kD: 30 kD PEGylated IL-2 conjugate at L19, made by modification of SEQ NO. 1 [Compound L19_30kD]
- CD8+/Treg ratio (Treg cells): 241
- EC50, CTLL-2 proliferation (CTLL-2; Table 12): 3510 pg/mL

Substance: M23_30kD: 30 kD PEGylated IL-2 conjugate at M23, made by modification of SEQ NO. 1 [Compound M23_30kD]
- CD8+/Treg ratio (Treg cells): 524
- EC50, CTLL-2 proliferation (CTLL-2; Table 12): 1102 pg/mL

Substance: N26_30kD: 30 kD PEGylated IL-2 conjugate at N26, made by modification of SEQ NO. 1 [Compound N26_30kD]
- CD8+/Treg ratio (Treg cells): 483
- EC50, CTLL-2 proliferation (CTLL-2; Table 12): 2594 pg/mL

Substance: N88R/D109_30kD: IL-2 variant N88R with 30 kD PEG at D109, made by modification of SEQ NO. 1
- CD8+/Treg ratio (Treg cells): 71
- EC50, CTLL-2 proliferation (CTLL-2; Table 12): 59577 pg/mL

Substance: N88R: IL-2 variant with substitution N88R [Compound N88R]
- CD8+/Treg ratio (Treg cells): 1356
- EC50, CTLL-2 proliferation (CTLL-2; Table 12): 363 pg/mL

Substance: N88_30kD: 30 kD PEGylated IL-2 conjugate at N88, made by modification of SEQ NO. 1 [Compound N88_30kD]
- CD8+/Treg ratio (Treg cells): 34
- EC50, CTLL-2 proliferation (CTLL-2; Table 12): 66606 pg/mL

Substance: N119_30kD: 30 kD PEGylated IL-2 conjugate at N119, made by modification of SEQ NO. 1 [Compound N119_30kD]
- CD8+/Treg ratio (Treg cells): 268
- EC50, CTLL-2 proliferation (CTLL-2; Table 12): 1215 pg/mL

Substance: P65_5kD: SEQ ID NO: 20: IL-2 (SEQ ID NO: 4) with P65 replaced by AzK conjugated to methoxy linear 5 kDa PEG [Compound P65_5kD]
- CD8/Treg ratio (Treg cells): 2.2
- EC50, CTLL-2 proliferation (CTLL-2; Table 4): 194,924 pg/mL

Substance: Q126_30kD: 30 kD PEGylated IL-2 conjugate at Q126, made by modification of SEQ NO. 1 [Compound Q126_30kD]
- CD8+/Treg ratio (Treg cells): 670
- EC50, CTLL-2 proliferation (CTLL-2; Table 12): 3584 pg/mL

Substance: S127_30kD: 30 kD PEGylated IL-2 conjugate at S127, made by modification of SEQ NO. 1 [Compound S127_30kD]
- CD8+/Treg ratio (Treg cells): 615
- EC50, CTLL-2 proliferation (CTLL-2; Table 12): 123 pg/mL

Substance: T123_30kD: 30 kD PEGylated IL-2 conjugate at T123, made by modification of SEQ NO. 1 [Compound T123_30kD]
- CD8+/Treg ratio (Treg cells): 569
- EC50, CTLL-2 proliferation (CTLL-2; Table 12): 255 pg/mL

Substance: T131_30kD: 30 kD PEGylated IL-2 conjugate at T131, made by modification of SEQ NO. 1 [Compound T131_30kD]
- CD8+/Treg ratio (Treg cells): 515
- EC50, CTLL-2 proliferation (CTLL-2; Table 12): 641 pg/mL

Substance: V91K: IL-2 variant with substitution V91K [Compound V91K]
- CD8+/Treg ratio (Treg cells): 720
- EC50, CTLL-2 proliferation (CTLL-2; Table 12): 99.5 pg/mL
